# Assay results reported in patent US6355619B1, “Peptide tumor cell growth inhibitors” (Board of Regents, The University of Texas System, priority 1996, dated 2002).
# What was measured:
# [1] = molecular target: T1, leukotriene B4 binding to human neutrophils (Homo sapiens, UniProt Q15722); test: Binding of 3H-leukotriene B4 to human neutrophils; settings: 100 μM peptide; 0.4 nM 3H-labeled leukotriene B4
# T1 construct: endogenous in cells; host or cells: human blood neutrophils
# Excerpt: To examine the specificity of Ac-RRWWCR-NH2 (SEQ ID NO:1) on ligand-receptor binding, the inventors tested whether the peptide reduced the binding of human ^125I-C5a or ^3H-leukotriene B4 to human neutrophils.
# Recombinant human fifth component of complement (C5a) (Sigma Chemical Co., St. Louis, Mo.) was radioiodinated enzymatically using Enzymobead (Bio Rad, Richmond, Calif.). Tritiated leukotriene B4 was purchased from Du Pont Co., Wilmington, Del. Binding assays for C5a and leukotriene B4 were performed as described for IL-8 binding in Example I, except that the buffers used were PBS containing 1 mM CaCl2, 0.5 mM MgCl2, 0.5% BSA, and HBSS containing 0.1% ovulabumin and 10 mM HEPES (pH7.3), respectively, as previously described (Braunwalder et al., 1992; Sherman et al., 1988). The radioactivity was measured with liquid scintillation counter for the leukotriene B4 assay. The binding of both ligands were saturable and inhibited by the non-labeled agonists in dose dependent manners.
# [2] = tested on: neutrophils; test: Checkerboard analysis for chemotactic activity of the peptide itself; assay type: cell-based, human
# Experimental: Chemotaxis was performed using the leading front method as described by Zigmond and Hirsh (1973). IL-8 or controls were placed in the lower well of a Boyden chamber. A five micron pore size, 100 μm. thick cellulose nitrate filter (Sartorius Filter,. Inc., San Francisco, Calif.) was placed on the surface and the chamber was then assembled. A 200 μl aliquot of the neutrophil preparation (1×10^6 cells/ml) in RPMI-1640 media containing 1% BSA was added to the top of the filter and incubated at 37° C. for 30 min. The filter was then fixed, stained and mounted on a glass microscope slide. The leading front was determined by the position of the leading two cells. The distance that the leading two cells had moved through the filter was measured for six fields on each filter. The measurements were made with four filters for each set of conditions.
# [3] = tested on: MGSA/GROα receptors on Hs 294T melanoma cells; test: Binding of 125I-MGSA/GROα to Hs 294T melanoma cells; parameters: species or system human; settings: 1 nM 125I-labeled MGSA/GROα, read-out: EC50, inhibition of MGSA/GROα binding
# Experimental: FIG. 11A. The binding of ^125I-labeled MGSA/GROα to melanoma cell lines, Hs 294T and RPMI-7951. The melanoma cells, 1×10^5, were incubated with 1 nM ^125I-MGSA/GROα in the presence of various concentrations of unlabeled MGSA/GROα. Binding inhibition curve with Hs 294T (closed circles) and RPMI-7951 (open circles). The lines shown in the graph are the best fit curves calculated using the London II computer program.
# FIG. 13. The effect of Antileukinate on the binding of radiolabeled MGSA/GROα to the melanoma cell lines. The melanoma cells, Hs 294T (closed circles) and RPMI-7951 (open circles), were incubated with 1 nM ^125I-MGSA/GROα in the presence of different concentrations of Antileukinate. The lines shown in the graph are the best fit curves calculated using the London II computer program.
# Recombinant human MGSA/GROα and IL-8 were purchased form Pepro Tech Inc. (Rocky Hill, N.J.) and radioactively labeled using ^125I-labeled Bolton-Hunter reagent (DuPont-NEN, Wilmington, Del.) (Bolton and Hunter, 1973). The labeled proteins were isolated using Sephadex G-25 column (Column PD-10, Pharmacia) pre-equilibrated with PBS containing 0.1% gelatin and stored at −70° C. after the addition of 1% bovine serum albumin.
# Binding studies with melanoma cell lines were performed by the method of Horuk and colleagues (Horuk et al., 1993). Briefly, the cells (1×10^5 cells/well) in 24-well plates were washed two times with Hank's Balanced Salt Solution and incubated with ^125I-labeled MGSA/GROα or IL-8 in the buffer containing 1% bovine serum albumin at 4° C. for 3 hr. The incubation was terminated by vacuum aspiration of the supernatant. The cells were washed three times in binding buffer, solubilized by the addition of 200 μl of 1% SDS, and transferred to vials for counting. The non-specific binding was estimated by measuring the binding in the presence of 100-fold excess of non-labeled ligand. The binding parameters were calculated using the Lundon II computer program (Lundon Software Inc., Chagrin Falls, Ohio).
# [4] = tested on: Hep G2 liver cancer cells; test: Cell growth assay, Hep G2; assay type: cell-based; settings: 72 hr
# Experimental: FIG. 15C. The effect of Antileukinate on the growth of melanoma cells. Melanoma cell lines and a control liver cancer cell line (2×10^4 cells/well) in 500 μl were cultured in a 24 well tissue culture plate in the presence of various concentrations of Antileukinate for 3 d. The culture media were changed to fresh media containing the same concentration of Antileukinate every 24 hr during the incubation period. After incubation, the cells were collected and the cell number was counted using a hemocytometer. Liver cancer cell line, Hep G2. Analysis of variance was used for multiple comparison.
# The cell lines (2×10^4 cells/well) in 500 μl cell culture medium were grown in 24 well tissue culture plates. After the cells adhered to the plate, the supernatants were aspirated and 500 μl of media containing various concentrations of Antileukinate were added to the wells. The cells were cultured for period indicated in the text. The culture media were changed to fresh media every 24 hr. After incubation, the cells were detached with trypsin-EDTA solution (Life Technologies Inc., Gaithersburg, Md., containing 0.05% of trypsin and 0.53 mM of EDTA in Hanks Balanced Salt Solution without Ca^2+ and Mg^2+) and the cell number was counted using a hemocytometer.
# [5] = tested on: lung adenocarcinoma cell line KS-LU-1; test: Tumor cell growth, KS-LU-1; assay type: cell-based
# [6] = tested on: human neutrophils; test: Binding of the peptide to human neutrophils
# [7] = peptide below filter 1.0 μM, above filter 5.0 μM
# [8] = peptide below filter 1.0 μM, above filter 12.5 μM
# [9] = peptide below filter 1.0 μM, above filter 25.0 μM
# [10] = peptide below filter 5.0 μM, above filter 1.0 μM
# [11] = peptide below filter 5.0 μM, above filter 12.5 μM
# [12] = peptide below filter 5.0 μM, above filter 25.0 μM
# [13] = peptide below filter 12.5 μM, above filter 1.0 μM
# [14] = peptide below filter 12.5 μM, above filter 5.0 μM
# [15] = peptide below filter 12.5 μM, above filter 25.0 μM
# [16] = peptide below filter 25.0 μM, above filter 1.0 μM
# [17] = peptide below filter 25.0 μM, above filter 5.0 μM
# [18] = peptide below filter 25.0 μM, above filter 12.5 μM
# T1 sequence (Q15722 whole entry): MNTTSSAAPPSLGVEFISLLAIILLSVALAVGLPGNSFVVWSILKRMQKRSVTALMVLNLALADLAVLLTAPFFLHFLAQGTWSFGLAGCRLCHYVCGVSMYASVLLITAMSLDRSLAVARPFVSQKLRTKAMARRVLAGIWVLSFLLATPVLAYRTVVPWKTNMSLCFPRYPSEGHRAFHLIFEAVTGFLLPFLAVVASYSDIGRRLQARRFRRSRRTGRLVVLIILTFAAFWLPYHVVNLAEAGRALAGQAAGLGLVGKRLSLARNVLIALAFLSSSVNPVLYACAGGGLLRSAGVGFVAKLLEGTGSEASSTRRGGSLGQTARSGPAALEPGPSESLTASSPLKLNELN
substance,measurement,setting,value
RRWWCR [Ac-RRWWCR-NH2],effect on binding of leukotriene B4 to neutrophils,[1],did not affect the binding
same,chemotactic activity of the peptide (checkerboard analysis),[2],not chemotactic for neutrophils
same,effect on chemokinesis of neutrophils,"[2]; control studies, media alone",had no effect on chemokinesis
same,"migration, mean ± SD of experimental observations","[2]; peptide below filter 1.0 μM, above filter 1.0 μM",27.8 ± 5.5
same,"calculated migration expected if cells responded to absolute concentration, not gradient",[2]; [7],29.1
same,"migration, mean ± SD of experimental observations",[2]; [7],28.0 ± 4.7
same,"calculated migration expected if cells responded to absolute concentration, not gradient",[2]; [8],24.2
same,"migration, mean ± SD of experimental observations",[2]; [8],25.6 ± 4.0
same,"calculated migration expected if cells responded to absolute concentration, not gradient",[2]; [9],24.3
same,"migration, mean ± SD of experimental observations",[2]; [9],26.7 ± 6.3
same,"calculated migration expected if cells responded to absolute concentration, not gradient",[2]; [10],28.0
same,"migration, mean ± SD of experimental observations",[2]; [10],29.6 ± 6.3
same,"migration, mean ± SD of experimental observations","[2]; peptide below filter 5.0 μM, above filter 5.0 μM",29.3 ± 7.2
same,"calculated migration expected if cells responded to absolute concentration, not gradient",[2]; [11],23.7
same,"migration, mean ± SD of experimental observations",[2]; [11],24.2 ± 5.4
same,"calculated migration expected if cells responded to absolute concentration, not gradient",[2]; [12],24.4
same,"migration, mean ± SD of experimental observations",[2]; [12],25.9 ± 6.7
same,"calculated migration expected if cells responded to absolute concentration, not gradient",[2]; [13],28.4
same,"migration, mean ± SD of experimental observations",[2]; [13],27.0 ± 5.5
same,"calculated migration expected if cells responded to absolute concentration, not gradient",[2]; [14],28.5
same,"migration, mean ± SD of experimental observations",[2]; [14],27.5 ± 4.8
same,"migration, mean ± SD of experimental observations","[2]; peptide below filter 12.5 μM, above filter 12.5 μM",22.9 ± 5.9
same,"calculated migration expected if cells responded to absolute concentration, not gradient",[2]; [15],24.5
same,"migration, mean ± SD of experimental observations",[2]; [15],24.8 ± 5.8
same,"calculated migration expected if cells responded to absolute concentration, not gradient",[2]; [16],28.4
same,"migration, mean ± SD of experimental observations",[2]; [16],30.9 ± 4.7
same,"calculated migration expected if cells responded to absolute concentration, not gradient",[2]; [17],27.1
same,"migration, mean ± SD of experimental observations",[2]; [17],27.5 ± 4.9
same,"calculated migration expected if cells responded to absolute concentration, not gradient",[2]; [18],23.1
same,"migration, mean ± SD of experimental observations",[2]; [18],27.9 ± 4.8
same,"migration, mean ± SD of experimental observations","[2]; peptide below filter 25.0 μM, above filter 25.0 μM",24.7 ± 3.8
same,EC50,[3],~1000 nM
same,effect on growth of Hep G2 liver cancer cells,[4],did not affect the growth
same,effect on cell growth,[5],inhibits growth
same,binding of the peptide to human neutrophils,[6],binds to human neutrophils
